This is an account of results in PubChem BioAssay (NCI).

What all share (test): growth of human tumour cells (NCI), 48 h
The test system of assay [1] is CAKI-1 renal.
The subject of assay [2] is HOP-62 NSCLC.
Assay [3] relates to LOX IMVI melanoma.
In assay [4] the test system is M14 melanoma.
The subject of assay [5] is MOLT-4 leukemia.
The test system of assay [6] is RPMI-8226 leukemia.
In assay [7] the test system is SF-268 CNS.
For assay [8], the system named is SR leukemia.
Assay [9] has as its system TK-10 renal.
The test system of assay [10] is UACC-62 melanoma.

“And” between values parts separate entries of the source, which are not always exact repeats. Equal values may be shown once.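 48-hour exposure; five concentrations; linearly interpolated endpoints. GI50 marks 50% less growth. TGI: total growth inhibition.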

Take `COCCn1cc(-c2nc(-c3cc4cccnc4[nH]3)cs2)c2cc(OC)ccc21`: the GI50 in [1] is 3.01 µM; in assay [2], 2.2 µM; in [3], 3.35 µM; in assay [4], 4.8 µM; in [5], 4.24 µM; in assay [6], 3.94 µM. The GI50 in [7] was 3.82 µM; in assay [8], 1.21 µM; in [9], 1.07 µM; in [10] it was 4.22 µM. The TGI in [1] was over 82.4 µM; in [2], 9.36 µM; in assay [3], 35.1 µM; in assay [4], over 100 µM; in assay [5] it was over 46.7 µM; in assay [6] it was over 36.2 µM. In addition, the TGI in assay [7] was over 100 µM; in assay [8], over 29.7 µM; in assay [9], 10.7 µM; in assay [10] it was 31.3 µM.
As to `c1ccc(Nc2ncc(-c3ccccc3)o2)cc1`, the GI50 was 17.8 µM in [1]; over 25 µM in [2]; 22.6 µM in [3]; over 25 µM in assay [4]; over 25 µM in [5]; over 25 µM in assay [6]. Moreover, the GI50 was over 25 µM in assay [7], over 20.6 µM in assay [8], over 25 µM in [9] and over 25 µM in [10]. The TGI in assay [1], in assay [2], in [3], in [4], in [5] and in assay [6] was over 25 µM each time. Besides, the TGI in assay [7], in [8], in assay [9] and in [10] was over 25 µM throughout.
For the molecule `CC[C@@H](c1ccc(O)c(O)c1)[C@@H](CC)c1ccc(O)c(O)c1`, the GI50 was 2.77 µM in assay [1]; 17.7 µM in assay [2]; 2.85 µM in assay [3]; 3.59 µM in assay [4]; 4.21 µM in assay [5]; 4.31 µM in [6]. The GI50 in assay [7] was 17.9 µM; in [8] it was 4.17 µM; in assay [9], 26 µM; in assay [10] it was 10.4 µM. Further, the TGI in assay [1] was 9.43 µM; in assay [2] it was 33 µM; in assay [3] it was 9.91 µM; in assay [4], 13.5 µM; in [5], 22.5 µM; in assay [6] it was 26.3 µM. For the same molecule, the TGI was 37.5 µM in assay [7], over 100 µM in [8], 70.3 µM in assay [9] and 23.4 µM in assay [10].
In the case of `NC(=S)N/N=C\c1nccc2c(C(F)(F)F)cccc12`, the GI50 is 0.312 µM in assay [1]; 0.207 µM in assay [2]; 0.277 µM in assay [3]; 0.224 µM in assay [4]; 0.355 µM in [5]; 0.376 µM in assay [6]. Besides, the GI50 is 0.27 µM in assay [7], 0.0997 µM in assay [8], 0.516 µM in assay [9] and 0.283 µM in [10]. Also, the TGI in assay [1] was 8.73 µM; in assay [2], 1.4 µM; in assay [3] it was 10.8 µM; in assay [4], 0.706 µM; in [5] it was 15.6 µM; in assay [6] it was 14.9 µM. Besides, the TGI was 21.6 µM in assay [7], over 37 µM in assay [8], 32.1 µM in [9] and 1.15 µM in assay [10].
Take `COC(=O)c1cc2oc(/C=C3/SC(=S)N(NC(C)=O)C3=O)cc2n1C`: the GI50 in [1] was 10 µM; in assay [2] it was 21.7 µM; in [3], 11.1 µM; in assay [4] it was 10.8 µM; in [5] it was 11.3 µM; in [6] it was 24 µM. The GI50 in assay [7] is 28.4 µM; in assay [8], 3.32 µM; in assay [9], 26 µM; in assay [10], 14.7 µM. The TGI in assay [1] was 36.9 µM; in [2], 47.3 µM; in assay [3], 27.9 µM; in assay [4], 31.8 µM; in assay [5], 62.1 µM; in [6], over 100 µM. Further, the TGI is over 100 µM in assay [7], over 100 µM in assay [8], 97.4 µM in assay [9] and 35 µM in assay [10].
`C/C=C/[C@@H]1O[C@@H]2COC(=O)C2=C[C@@H]1O`: the GI50 in assay [1] was 2.14 µM; in assay [2], 23.5 µM; in assay [3], 17.5 µM; in assay [4] it was 13.7 µM; in assay [5] it was 2.2 µM; in assay [6], 2.55 µM. Also, the GI50 in assay [7] is 24.2 µM; in [8] it was 9.61 µM; in assay [9] it was 6.43 µM; in assay [10], 17.5 µM. In addition, the TGI in [1] was determined as 5.03 µM; in assay [2], 43 µM; in assay [3] it was 36.1 µM; in assay [4], 35.3 µM; in assay [6], 7.18 µM; in assay [7] it was 63.9 µM. For the same molecule, the values for the TGI in assay [8], in [9] and in assay [10] were over 100 µM, 20.5 µM and 34.6 µM, respectively.
For the molecule `COc1c2ccccc2c(OC)c2[nH]c(=O)ccc12`, the GI50 is 16.2 µM in assay [1]; 2.01 µM in assay [2]; 1.84 µM in assay [3]; 0.843 µM in assay [4]; over 21.5 µM in assay [5]; 12.6 µM in assay [6]. The GI50 was 9.51 µM in [7], 6.61 µM in assay [8], 51.2 µM in assay [9] and 1.65 µM in assay [10]. For the same molecule, the TGI in [1] was over 90.6 µM; in [2] it was 3.72 µM; in [3] it was over 23 µM; in assay [4], 2.37 µM; in assay [5], over 100 µM; in assay [6], over 100 µM. Besides, the TGI in assay [7] was over 100 µM; in assay [8] it was over 100 µM; in assay [9], over 100 µM; in [10], 3.33 µM.
For `Br[Se]c1ccccn1`, the TGI in assay [1] stood at 33 µM; in [2], 12.2 µM; in [3], 33 µM; in assay [4] it was 31.7 µM; in assay [6], 60.9 µM; in assay [7], 32.2 µM. For the same molecule, the TGI in [8] stood at 65.8 µM; in [9], 34.5 µM; in assay [10] it was 30.9 µM.
In the case of `CC1(C)[C@@H](NOCCCN)CC[C@]2(C)[C@H]3C(=O)C=C4[C@@H]5C[C@](C)(C(=O)O)CC[C@]5(C)CC[C@@]4(C)[C@]3(C)CC[C@@H]12`, the GI50 is 2.44 µM in assay [1]; 13.5 µM in [2]; 8.46 µM in assay [4]; 4.63 µM in [5]; 2.8 µM in assay [6]; 8.92 µM in assay [7]. The GI50 in assay [8] was 2.27 µM; in [9], 16.7 µM; in assay [10], 3.85 µM. The TGI was 6.26 µM in [1]; 48.4 µM in assay [2]; 28.8 µM in [4]; 43 µM in assay [5]; 19.7 µM in assay [6]; 21.6 µM in [7]. The TGI in [8] was 6.89 µM; in assay [9], 36 µM; in assay [10] it was 14.8 µM.
`CC(=O)[O-].CC(=O)[O-].O=C(N/N=C/c1cc(Cl)cc(Cl)c1O)c1ccncc1.[Cu+2]`: the TGI in [2], in assay [3], in assay [4], in assay [5], in [6] and in assay [7] was over 100 µM each time. Moreover, the TGI in assay [8], in assay [9] and in assay [10] was over 100 µM throughout.
For the molecule `O=C1C(C(Nc2ccccc2)c2ccccc2)=C([O-])c2ccccc21.O=C1C(C(Nc2ccccc2)c2ccccc2)=C([O-])c2ccccc21.[Cu+2]` (stereo unspecified), the GI50 in assay [1] is over 100 µM; in [2], over 100 µM; in assay [3], 46.6 µM; in assay [4], 18.5 µM; in [5] it was 25.5 µM; in assay [6], 24.8 µM. Moreover, the GI50 in [8] is 42.2 µM; in assay [9] it was over 100 µM; in assay [10], 50.6 µM. The TGI in [1], in assay [2], in assay [3], in assay [4], in assay [5] and in assay [6] was over 100 µM in each case. Also, the TGI in assay [8], in [9] and in [10] was over 100 µM each time.
Take `CN1CCN(c2ccc(Nc3ncc(Cl)c(NC[C@@H]4CCCO4)n3)cc2)CC1`: the GI50 in assay [1] was 2.07 µM; in [2], 0.705 µM; in [3], 0.826 µM; in [4], 1.13 µM; in assay [6] it was 1.48 µM; in assay [7] it was 1.55 µM. The GI50 in assay [8] was 0.513 µM; in assay [9], 1.75 µM; in assay [10] it was 1.95 µM. Moreover, the TGI in [1] is over 100 µM; in assay [2], 4.61 µM; in assay [3] it was 6.83 µM; in [4] it was 11.2 µM; in [6], 5.63 µM; in assay [7], 12.9 µM. Further, the TGI came to 6.03 µM in assay [8], 8.39 µM in assay [9] and 10.5 µM in assay [10].
Take `O=C(O)CSc1n[nH]c(-c2ccccc2O)n1`: the TGI in [1], in assay [3], in [4], in [5], in assay [6] and in assay [7] was over 100 µM throughout. The TGI in assay [8], in assay [9] and in assay [10] was over 100 µM each time.
For `CC(=O)Nc1cc2ccc(=O)oc2cc1Cl`, the TGI in assay [1], in [2], in assay [3], in assay [4], in assay [5] and in assay [6] was over 100 µM in each case. The TGI in [7], in assay [8] and in assay [10] was over 100 µM throughout.
Regarding `C=C1C(=O)O[C@H]2[C@H]1CC/C(CNC(=O)c1cc3ccccc3[nH]1)=C\CC[C@@]1(C)O[C@@H]21`, the GI50 in assay [1] is 1.27 µM; in assay [2], 1.86 µM; in assay [3] it was 0.58 µM; in assay [4], 1.12 µM; in assay [5], 1.6 µM; in assay [6], 1.02 µM. For the same molecule, the GI50 in [7] was 1.6 µM; in [8], 0.319 µM; in assay [9], 1.48 µM. In addition, the TGI came to 4.26 µM in assay [1]; 4.37 µM in [2]; 1.99 µM in [3]; 2.81 µM in assay [4]; 4.55 µM in [5]; 3.88 µM in assay [6]. For the same molecule, the TGI in [7] came to 3.67 µM; in assay [8] it was 3.4 µM; in assay [9], 3.23 µM.
For the molecule `NC(N)=NS(=O)(=O)c1ccc(N=Nc2c(O)c(C(=O)O)cc3ccccc23)cc1`, the TGI in assay [1], in assay [2], in assay [4], in [5], in assay [6] and in assay [7] was over 100 µM in each case. In addition, the TGI in [8], in [9] and in assay [10] was over 100 µM throughout.
In the case of `Cc1[cH-]c(=O)n(-c2ccccc2)n1.[Au+].[Au].c1ccc([PH+](c2ccccc2)c2ccccc2)cc1.c1ccc([PH+](c2ccccc2)c2ccccc2)cc1`, the GI50 is 23.7 µM in assay [2]; 18 µM in assay [3]; 9.12 µM and 9.46 µM in assay [4]; 36.6 µM in assay [5]; 99.4 µM in assay [6]; 7.14 µM in assay [7]. The GI50 in assay [8] was 26.4 µM; in assay [9], 16.6 µM; in [10], 3.55 µM and 22.2 µM. The TGI is 54 µM in assay [2]; 46.8 µM in assay [3]; 41.5 µM in assay [4]; over 100 µM in assay [5]; over 100 µM in assay [6]; 31.9 µM in [7]. Further, the TGI in assay [8] was over 100 µM; in assay [9], 31.9 µM; in assay [10] it was over 100 µM.
With `CCOC(=O)C1Sc2ccccc2N=C1C` (stereo unspecified), the TGI in assay [2], in assay [3], in assay [5], in assay [6], in assay [7] and in assay [8] was over 100 µM in each case. The TGI in assay [9] is over 100 µM.
